Data: patent publication US9422545B2 (priority 2013, dated 2016)

Tests used:
[1] = test system: virulent C. burnetii; parameters: species or system Coxiella burnetii
[2] = test system: 1E4; format: binding, mouse

| Substance | number of dead bacteria [1] | inhibition index (A490 without PI-A490 with PI/A490 without PI) [2] |
| --- | --- | --- |
| EDTA | significantly higher numbers of dead bacteria | – |
| SPPWHKHELHRK [m1E44] | – | highest inhibition index |
